ChEMBL document CHEMBL1240361 (2010)

Columns and labels:
Format in all cases: functional
Staphylococcus aureus [1] = assay: (§1) Antibacterial activity against methicillin-resistant Staphylococcus aureus infected in New Zealand white rabbit osteomyelitis model assessed as change in bacterial load in bone per gram of tissue at 100 ug/mg administered via calcium-deficient apatite followed by constant iv infusion on day 3 post infection measured on day 7 by HPLC analysis
Staphylococcus aureus [2] = assay: as §1, with “bone marrow” for “bone”, “500” for “100”
Staphylococcus aureus [3] = assay: as §1, with “joint fluid” for “bone”
Staphylococcus aureus [4] = assay: as §1, with “25” for “100”, “apatite” for “apatite followed by constant iv infusion”
Staphylococcus aureus [5] = assay: as §1, with “joint fluid” for “bone”, “25” for “100”, “apatite” for “apatite followed by constant iv infusion”
Staphylococcus aureus [6] = assay: as §1, with “joint fluid” for “bone”, “500” for “100”, “apatite” for “apatite followed by constant iv infusion”
Staphylococcus aureus [7] = assay: as §1, with “bone marrow” for “bone”, “25” for “100”
Staphylococcus aureus [8] = assay: (§2) Antibacterial activity against methicillin-resistant Staphylococcus aureus infected in New Zealand white rabbit osteomyelitis model assessed as change in bacterial load in joint fluid per gram of tissue administered via constant iv infusion on day 3 post infection measured on day 7 by HPLC analysis
Staphylococcus aureus [9] = assay: as §1, with “bone marrow” for “bone”, “500” for “100”, “apatite” for “apatite followed by constant iv infusion”
Staphylococcus aureus [10] = assay: as §2, with “bone marrow” for “joint fluid”, “infusion in presence of unloaded calcium-deficient apatites” for “infusion”
Staphylococcus aureus [11] = assay: as §1, with “bone marrow” for “bone”, “apatite” for “apatite followed by constant iv infusion”
Staphylococcus aureus [12] = assay: as §1, with “joint fluid” for “bone”, “apatite” for “apatite followed by constant iv infusion”
Staphylococcus aureus [13] = assay: as §1, with “apatite” for “apatite followed by constant iv infusion”
Staphylococcus aureus [14] = assay: (§3) Antibacterial activity against methicillin-resistant Staphylococcus aureus infected in New Zealand white rabbit osteomyelitis model assessed as change in bacterial load in bone per gram of tissue administered via constant iv infusion on day 3 post infection measured on day 7 by HPLC analysis
Staphylococcus aureus [15] = assay: as §1, with “500” for “100”, “apatite” for “apatite followed by constant iv infusion”
Staphylococcus aureus [16] = assay: as §1, with “bone marrow” for “bone”
Staphylococcus aureus [17] = assay: as §1, with “joint fluid” for “bone”, “25” for “100”
Staphylococcus aureus [18] = assay: as §1, with “bone marrow” for “bone”, “25” for “100”, “apatite” for “apatite followed by constant iv infusion”
Staphylococcus aureus [19] = assay: as §1, with “25” for “100”
Staphylococcus aureus [20] = assay: as §2, with “infusion in presence of unloaded calcium-deficient apatites” for “infusion”
Staphylococcus aureus [21] = assay: Antibacterial activity against methicillin-resistant Staphylococcus aureus infected in New Zealand white rabbit osteomyelitis model assessed as change in bacterial load in bone marrow per gram of tissue administered via constant iv infusion on day 3 post infection measured on day 7 by HPLC analysis
Staphylococcus aureus [22] = assay: as §3, with “infusion in presence of unloaded calcium-deficient apatites” for “infusion”
Staphylococcus aureus [23] = assay: as §1, with “joint fluid” for “bone”, “500” for “100”

Question: With `CN[C@H](CC(C)C)C(=O)N[C@H]1C(=O)N[C@@H](CC(N)=O)C(=O)N[C@H]2C(=O)N[C@H]3C(=O)N[C@H](C(=O)N[C@H](C(=O)O)c4cc(O)cc(O)c4-c4cc3ccc4O)[C@H](O)c3ccc(c(Cl)c3)Oc3cc2cc(c3O[C@@H]2O[C@H](CO)[C@@H](O)[C@H](O)[C@H]2O[C@H]2C[C@](C)(N)[C@H](O)[C@H](C)O2)Oc2ccc(cc2Cl)[C@H]1O` [VANCOMYCIN] as the molecule, how does the log10cfu (Staphylococcus aureus [1]) read?
Answer: Its log10cfu is -4.63.

Question: What about the log10cfu (Staphylococcus aureus [2]) of the same molecule?
Answer: The log10cfu was 4.21.

Question: What about the log10cfu (Staphylococcus aureus [3]) of the same molecule?
Answer: The log10cfu was 0.9.

Question: What about the log10cfu (Staphylococcus aureus [4]) of the same molecule?
Answer: Its log10cfu is 1.97.

Question: What about the log10cfu (Staphylococcus aureus [5]) of the same molecule?
Answer: Its log10cfu is 0.56.

Question: What about the log10cfu (Staphylococcus aureus [6]) of the same molecule?
Answer: The log10cfu was 0.29.

Question: What about the log10cfu (Staphylococcus aureus [7]) of the same molecule?
Answer: Its log10cfu is -3.14.

Question: And the log10cfu (Staphylococcus aureus [8])?
Answer: Its log10cfu is 0.03.

Question: And the log10cfu (Staphylococcus aureus [9])?
Answer: Its log10cfu is 4.08.

Question: And the log10cfu (Staphylococcus aureus [10])?
Answer: The log10cfu was 0.75.

Question: And the log10cfu (Staphylococcus aureus [11])?
Answer: The log10cfu was 3.41.

Question: And the log10cfu (Staphylococcus aureus [12])?
Answer: Its log10cfu is 0.05.

Question: And the log10cfu (Staphylococcus aureus [13])?
Answer: Its log10cfu is 2.35.

Question: What about the log10cfu (Staphylococcus aureus [14]) of the same molecule?
Answer: Its log10cfu is 0.61.

Question: What about the log10cfu (Staphylococcus aureus [15]) of the same molecule?
Answer: Its log10cfu is 3.57.

Question: And the log10cfu (Staphylococcus aureus [16])?
Answer: The log10cfu was -4.03.

Question: And the log10cfu (Staphylococcus aureus [17])?
Answer: Its log10cfu is 0.68.

Question: And the log10cfu (Staphylococcus aureus [18])?
Answer: Its log10cfu is 1.89.

Question: What about the log10cfu (Staphylococcus aureus [19]) of the same molecule?
Answer: Its log10cfu is -2.4.

Question: And the log10cfu (Staphylococcus aureus [20])?
Answer: The log10cfu was 0.3.

Question: What about the log10cfu (Staphylococcus aureus [21]) of the same molecule?
Answer: The log10cfu was 0.73.

Question: And the log10cfu (Staphylococcus aureus [22])?
Answer: The log10cfu was 0.35.

Question: And the log10cfu (Staphylococcus aureus [23])?
Answer: Its log10cfu is 1.69.
